# Measurements: patent publication US6509355B1, “Treatment of disorders of the outer retina” (Alcon Laboratories, Inc., priority 1998, dated 2003)
# What was measured:
# [1] = Drugs of the Future 1994; cited from earlier work
# retinal laser burn = assay: Retinal laser burn spread damage: argon laser, lesion area in outer nuclear layer after 48 hours; type: in vivo, Pigmented Long Evans rats
# Text: The eye is exposed to high-energy laser radiation during the performance of retinal photocoagulation therapy (grid, focal and […]) or during photodynamic therapy. This type of therapy is often employed during treatment of choroidal neovascularization, proliferative stages of diabetic retinopathy, retinopathy of prematurity, or to repair retinal holes or […]. Associated with this laser therapy is tissue destruction leading to vision deterioration. […] It is believed that this vision loss results directly from the expansion of the laser-induced lesion to surrounding normal neurosensory retina and RPE. Singlet oxygen and other reactive oxygen species as well as cytokines are generated in the area of the laser burn and thought to migrate laterally to cause collateral retinal damage. Retinal morphology changes in this area are similar to changes in our photo-oxidative retinopathy paradigm. […] Pigmented Long Evans rats were randomly assigned to control, vehicle or drug dosed groups. […] After a 48-hour recovery period, eyes were fixed, dehydrated, and embedded in plastic resin. Histological assessment of laser burns was performed by flatmounting the retina and sectioning the tissue in a plane tangential to the nerve fiber layer. Using this technique, the lesion area in the outer nuclear layer could be calculated using an image analysis system. […] The laser bum center was marked by; complete closure of all capillaries, arterioles and venuoles; perforation of Bruch's membrane; pyknosis and necrosis of all photoreceptor nuclei; and destruction of inner and outer segments. Spread of the lesion into peripheral retina consisted of shortening of outer segments, inner segment swelling, clumping of melanin granules in the RPE and choroid, and vacuolization of the RPE.
# [2] = system: light induced functional or morphological changes; assay: Light damage paradigms (light induced damage paradigm); conditions: in vivo
# Protocol: Eliprodil was evaluated in our light induced damage paradigm, a model of retinal degenerative diseases such as retinitis pigmentosa and age-related macular degeneration.
# [3] = biological target: NR1A/NR2B subtype of the polyamine binding site of the NMDA receptor (Homo sapiens, UniProt Q05586+Q13224); conditions: cited from earlier work
# Sequence of NR1A/NR2B subtype of the polyamine binding site of the NMDA receptor (Q13224 27-1484, other chains not shown): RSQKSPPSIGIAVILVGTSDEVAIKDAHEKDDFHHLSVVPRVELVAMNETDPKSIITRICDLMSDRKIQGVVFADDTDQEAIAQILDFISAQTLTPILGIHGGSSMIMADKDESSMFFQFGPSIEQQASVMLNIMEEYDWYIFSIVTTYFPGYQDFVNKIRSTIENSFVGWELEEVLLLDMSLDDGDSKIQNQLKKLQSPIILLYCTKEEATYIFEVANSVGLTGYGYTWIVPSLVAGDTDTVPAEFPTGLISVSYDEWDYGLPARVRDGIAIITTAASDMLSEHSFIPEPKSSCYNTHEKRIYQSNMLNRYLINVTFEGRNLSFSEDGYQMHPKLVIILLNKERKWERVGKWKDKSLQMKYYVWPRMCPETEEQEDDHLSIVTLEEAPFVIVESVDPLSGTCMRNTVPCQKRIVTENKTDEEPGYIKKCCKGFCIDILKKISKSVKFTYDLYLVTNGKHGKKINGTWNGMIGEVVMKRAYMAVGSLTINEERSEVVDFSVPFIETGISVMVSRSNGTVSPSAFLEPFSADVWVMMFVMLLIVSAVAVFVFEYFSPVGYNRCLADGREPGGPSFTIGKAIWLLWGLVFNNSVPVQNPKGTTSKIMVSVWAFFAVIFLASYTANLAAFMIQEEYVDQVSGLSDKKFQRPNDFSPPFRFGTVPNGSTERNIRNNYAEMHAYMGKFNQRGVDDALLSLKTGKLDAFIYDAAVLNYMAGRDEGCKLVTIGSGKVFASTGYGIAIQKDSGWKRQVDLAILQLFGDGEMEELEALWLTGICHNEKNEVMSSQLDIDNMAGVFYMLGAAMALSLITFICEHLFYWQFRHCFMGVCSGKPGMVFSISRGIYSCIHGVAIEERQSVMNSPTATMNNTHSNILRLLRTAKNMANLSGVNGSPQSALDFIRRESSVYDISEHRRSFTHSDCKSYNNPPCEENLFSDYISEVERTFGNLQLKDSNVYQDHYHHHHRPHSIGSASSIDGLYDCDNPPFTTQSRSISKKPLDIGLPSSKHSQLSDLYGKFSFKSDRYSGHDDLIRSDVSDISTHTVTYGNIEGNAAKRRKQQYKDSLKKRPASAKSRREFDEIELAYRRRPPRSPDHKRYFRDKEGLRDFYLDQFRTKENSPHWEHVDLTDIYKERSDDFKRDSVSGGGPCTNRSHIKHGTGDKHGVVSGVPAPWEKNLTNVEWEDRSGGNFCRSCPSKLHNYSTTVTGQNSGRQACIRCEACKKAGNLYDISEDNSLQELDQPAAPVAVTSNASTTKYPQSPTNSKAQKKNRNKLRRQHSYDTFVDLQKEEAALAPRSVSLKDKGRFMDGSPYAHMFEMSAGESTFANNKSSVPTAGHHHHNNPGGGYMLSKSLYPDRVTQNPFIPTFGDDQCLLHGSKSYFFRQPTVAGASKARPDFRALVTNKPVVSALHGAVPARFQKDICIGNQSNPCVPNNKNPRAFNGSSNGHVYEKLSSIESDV
# [4] = Drugs of the Future 1994; cited from earlier work; remark: listed apart in the source
# [5] = system: photo-oxidative induced retinopathy; assay: Photo-oxidative induced retinopathy: 6-hour blue light exposure, ERG after 5-day recovery; conditions: rat, in vivo
# Text: Photic retinopathy results from excessive excitation of the retinal pigment epithelium and neuroretina by absorption of visible or near ultraviolet radiation. Lesion severity is dependent upon wavelength, irradiance, exposure duration, species, ocular pigmentation, and age. Damage may result from peroxidation of cellular membranes, inactivation of mitochondrial enzymes such as cytochrome oxidase, or increased intracellular calcium. Cellular damage resulting from photo-oxidative stress leads to cell death by apoptosis, (Shahinfar, S., Edward. D. P. and Tso, M. O. (1991), A pathologic study of photoreceptor cell death in retinal photic injury. Current Eye Research, 10:47-59: Abler, A. S., Chang, C. J., Fu, J. and Tso, M. O. (1994), Photic injury triggers apoptosis of photoreceptor cells. Investigative Ophthalmology & Visual Science, 35(Suppl):1517). Oxidative stress induced apoptosis has been implicated as a cause of many ocular pathologies, including, iatrogenic retinopathy, macular degeneration, retinitis pigmentosa and other forms of heredodegenerative disease, ischemic retinopathy, retinal tears, retinal detachment, glaucoma and retinal neovascularization (Chang, C. J., Lai, W. W., Edward, D. P. and Tso, M. O. (1995), Apoptotic photoreceptor cell death after traumatic retinal detachment in humans, Archives of Ophthalmology, 113:880-886: Portera-Cailliau, C., Sung, C. H., Nathans, J. and Adler, R. (1994), Apoptotic photoreceptor cell death in mouse models of retinitis pigmentosa, Proceedings of National Academy of Science (U.S.A.), 91:974-978; Buchi, E. R. (1992), Cell death in the rat retina after a pressure-induced ischaemia-reperfusion insult: an electron microscopic study. I. Ganglion cell layer and inner nuclear layer, Experimental Eye Research, 55:605-613; Quigley, H. A., Nickells. R. W., Kerrigan, L. A., Pease, M. E., Thibault, D. J. and Zack, D. J. (1995), Retinal ganglion cell death in experimental glaucoma and after axotomy occurs by apoptosis, Investigative Ophthalmology & Visual Science, 36:774-786). […] Alan R. Liss, Inc., New York; Collier, R., W. Waldron and Zigman, S. (1989), Temporal sequence of changes to the gray squirrel retina after near-UV exposure, Investigative Ophthalmology & Visual Science, 30:631-637), non-human primates (Tso, M. O. M. (1973), Photic maculopathy in rhesus monkey. A light and electron microscopic study. Investigative Ophthalmology & Visual Science, 12:17-34; Ham, W. T., Jr., Ruffolo, J. J., Jr., Mueller, H. A. and Guerry, D., III. (1980), The nature of retinal radiation damage: dependence on wavelength, power level and exposure time, Vision Research, 20:1105-1111; Sperling, H. G., Johnson, C. and Harwerth, R. S. (1980), Differential spectral photic damage to primate cones, Vision Research, 20:1117-1125: Sykes, S. M., Robison, W. G., Jr., Waxler, M. and Kuwabara, T. (1981), Damage to the monkey retina by broad spectrum fluorescent light, Investigative Ophthalmology & Visual Science, 20:425-434; Lawwill, T. (1982), Three major pathologic processes caused by light in the primate retina: A search for mechanisms, Transactions of the American Ophthalmology Society, 80:517-577), and man (Marshall, J. Hamilton, A. M. and Bird, A. C. (1975), Histopathology of ruby and argon laser lesions in monkey and human retina, British Journal of Ophthalmology, 59:610-630; Green, W. R. and Robertson, D. M. (1991), Pathologic findings of photic retinopathy in the human eye. American Journal of Ophthalmology, 112:520-27).
# NMDA receptor = assay: Binding affinity to the NMDA receptor; conditions: order of magnitude only
compound,measurement,setting,value
"OC(CN1CCC(Cc2ccc(F)cc2)CC1)c1ccc(Cl)cc1 (racemic) [Eliprodil, 2-[4-(4-fluorobenzyl)-piperidino]-1-(4-chlorophenyl)ethanol]",crossing of the blood-brain barrier,[1],effectively crosses the blood-brain barrier
same,oral bioavailability,[1],orally bioavailable
same,Laser burn lesion area,retinal laser burn; 10 mg/kg IP,"55,411.67 μ^2"
same,reduction in laser lesion burn size,retinal laser burn; 10 mg/kg IP,No reduction
same,reduction of retinal burn area compared to vehicle,"retinal laser burn; IP, dose not given",approximately 60%
same,significance of burn area reduction compared to vehicle,"retinal laser burn; IP, dose not given",significantly reduced
same,average burn area,"retinal laser burn; IP, dose not given, vehicle 55,243.65, control 50,627.07","22,406 μ^2"
same,efficacy compared to R-eliprodil,retinal laser burn; summary,twice as efficacious
same,potency compared to R-eliprodil,retinal laser burn; summary,two fold more potent
same,reduction of collateral retinal damage around the laser burn (summary),retinal laser burn; summary,significant reduction
same,preventing light induced functional or morphological changes,[2],completely protected
same,subtype preference of NMDA receptor block,[3],preferentially block
same,incidence of adverse effects upon administration,[4],low incidence of adverse effects
same,dose dependence of protection of outer and inner retina function,[5],dose-dependent protection
same,"ERGs, % of normal","[5]; ip, 2 mg/kg",approximately 32%
same,protection of outer and inner retina function against light induced retinal degeneration,"[5]; ip, 2 mg/kg",not significantly different than vehicles
same,"ERGs, % of normal","[5]; ip, 10 mg/kg",approximately 32%
same,protection of outer and inner retina function against light induced retinal degeneration,"[5]; ip, 10 mg/kg",not significantly different than vehicles
same,"ERG a-wave, % of normal","[5]; ip, 20 mg/kg",57%
same,"ERG a-wave, fold higher than vehicle dosed rats","[5]; ip, 20 mg/kg",2.4 fold
same,"ERG b-wave, % of normal","[5]; ip, 20 mg/kg",53%
same,"ERG b-wave, fold higher than vehicle dosed rats","[5]; ip, 20 mg/kg",2.2 fold
same,"Maximum a-wave response amplitude, fold higher than vehicle dosed rats","[5]; ip, 20 mg/kg",2.4 fold
same,maximum a-wave response amplitude,"[5]; ip, 20 mg/kg",395.82 μV
same,"response amplitudes, % of normal","[5]; ip, 20 mg/kg",approximately 60%
same,"Maximum a-wave response amplitude, fold higher than vehicle dosed rats","[5]; ip, 40 mg/kg",2.25 fold
same,maximum a-wave response amplitude,"[5]; ip, 40 mg/kg",419.85 μV
same,protection of outer and inner retina function against light induced retinal degeneration,"[5]; ip, 40 mg/kg",significant protection
same,"response amplitudes, % of normal","[5]; ip, 40 mg/kg",approximately 60%
same,binding affinity to the NMDA receptor,NMDA receptor,nanomolar
